Results as given in PubChem BioAssay (NCI).
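Grown in 96-well plates, cells were treated for 48 hours with each compound at five concentrations. Insufficient inhibition: endpoint recorded as highest concentration tested. TGI: concentration producing complete growth inhibition.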

Legend:
Test in all cases: NCI-60 cell line screen, 48 h
HCC-2998 colon = test system: HCC-2998 colon
EKVX NSCLC = test system: EKVX NSCLC
OVCAR-4 ovarian = test system: OVCAR-4 ovarian
TK-10 renal = test system: TK-10 renal
SR leukemia = test system: SR leukemia
SF-539 CNS = test system: SF-539 CNS
NCI-H23 lung = test system: NCI-H23 lung
NCI-H522 lung = test system: NCI-H522 lung
NCI-H460 lung = test system: NCI-H460 lung
CCRF-CEM leukemia = test system: CCRF-CEM leukemia
RPMI-8226 leukemia = test system: RPMI-8226 leukemia
CAKI-1 renal = test system: CAKI-1 renal
NCI-H226 lung = test system: NCI-H226 lung
SNB-75 CNS = test system: SNB-75 CNS
SF-295 CNS = test system: SF-295 CNS
OVCAR-5 ovarian = test system: OVCAR-5 ovarian
NCI/ADR-RES ovarian = test system: NCI/ADR-RES ovarian
PC-3 prostate = test system: PC-3 prostate
A549 NSCLC = test system: A549 NSCLC
SN12C renal = test system: SN12C renal

Compound	TGI (HCC-2998 colon) [µM]	TGI (EKVX NSCLC) [µM]	TGI (OVCAR-4 ovarian) [µM]	TGI (TK-10 renal) [µM]	TGI (SR leukemia) [µM]	TGI (SF-539 CNS) [µM]	TGI (NCI-H23 lung) [µM]	TGI (NCI-H522 lung) [µM]	TGI (NCI-H460 lung) [µM]	TGI (CCRF-CEM leukemia) [µM]	TGI (RPMI-8226 leukemia) [µM]	TGI (CAKI-1 renal) [µM]	TGI (NCI-H226 lung) [µM]	TGI (SNB-75 CNS) [µM]	TGI (SF-295 CNS) [µM]	TGI (OVCAR-5 ovarian) [µM]	TGI (NCI/ADR-RES ovarian) [µM]	TGI (PC-3 prostate) [µM]	TGI (A549 NSCLC) [µM]	TGI (SN12C renal) [µM]
O=C(CC(=O)N1N=C(N(c2ccccc2)c2ccccc2)CC1c1ccccc1)Nc1ccccc1 (stereo not drawn)	> 100	> 100	> 100	> 100	> 100	> 100	> 100	> 100	> 100	> 100	> 100	> 100	> 100	> 100	> 100	> 100	> 100	> 100	> 100	–
c1cc(C[S+]2CCCC2)sc1C[S+]1CCCC1	> 100	> 100	> 100	> 100	> 100	> 100	> 100	> 100	> 100	> 100	> 100	> 100	> 100	> 100	> 100	> 100	> 100	> 100	> 100	> 100
CCN(CC)CCCNc1ncc(C)c2c1c1ccc3c(O)cccc3c1n2C	4.31	6.87	3.45	22.9	1.78	14.9	4.82	2.29	–	6.1	> 23.9	3.4	26.2	6.74	4.76	11.8	> 100	2.16	2.34	14.3
N#CC1(C#N)C(c2ccccc2)C=CC(c2ccc([N+](=O)[O-])cc2)C1(C#N)C#N (stereo not drawn)	42.9	28.6	30.5	13.1	> 23.6	8.38	27.4	9.48	> 100	> 100	> 25.6	13.1	> 57.5	47.7	33.7	31.9	> 74.4	25	32	12.2
CC(=O)CCC[C@H](C)[C@@H](O)[C@@H]1O[C@H]([C@@]2(C)CCC(=O)O2)C[C@H]1C(=O)O	> 100	> 100	> 100	> 100	> 100	> 100	> 100	> 100	> 100	> 100	> 100	> 100	> 100	> 100	> 100	> 100	> 100	> 100	> 100	> 100
COCN1C(=O)[C@@H]2CCCN2C(=O)c2ccc([N+](=O)[O-])cc21	> 100	> 100	> 100	> 100	> 100	> 100	> 100	> 100	> 100	> 100	> 100	> 100	> 100	> 100	> 100	> 100	> 100	> 100	> 100	> 100
